The assay has as its system Rice, W.S. Jap. In words: Test F flood (paddy) test. Format: in vivo, Oryza sativa cv. Japonica—M202. To be noted: 21 d, scale 0-100. The source says: Three plastic pots (ca. 16-cm diameter) per rate were partially filled with sterilized Tama silt loam soil comprising a 35:50:15 ratio of sand, silt and clay and 2.6% organic matter. Separate plantings for each of the three pots were as follows. Seeds from the U.S. of monochoria (Monochoria vaginalis), sedge, umbrella (small-flower umbrella sedge, Cyperus difformis), bulrush, […] bulrush, Scirpus juncoides), and […] (purple […] coccinea), were planted into one 16-cm pot for each rate. Seeds from the U.S. of flatsedge, rice (rice flatsedge, Cyperus iria), sprangletop, Brdd. (bearded sprangletop, Leptochloa fascicularis), one stand of 9 or 10 water seeded rice seedlings (Rice, W.S. Jap, Oryza sativa cv. 'Japonica-[…]' or Rice, W.S. Ind, 'Indica'), and two stands of 3 or 4 seedlings of rice, transplanted (transplanted rice, Oryza sativa cv. 'Japonica-[…]') were planted into one 16-cm pot for each rate. Seeds from the U.S. of barnyardgrass (Echinochloa crus-galli), […] (common […], Alisma plantago-aquatica), and watergrass, late (late watergrass, Echinochloa oryzicola) were planted into one 16-cm pot for each rate. Plantings were sequential so that crop and weed species were at the 2.0 to 2.5-leaf stage at time of treatment. Potted plants were grown in a greenhouse with day/night temperature settings of 30/27° C., and supplemental balanced lighting was provided to maintain a 16-h photoperiod. Test pots were maintained in the greenhouse until test completion. At time of treatment, test pots were flooded to 3 cm above the soil surface, treated by application of test compounds directly to the paddy water, and then maintained at that water depth for the duration of the test. Effects of treatments on rice and weeds were visually evaluated by comparison to untreated controls after 21 d. Plant response ratings, summarized in Table F, are based on a scale of 0 to 100 where 0 is no effect and 100 is complete control. A dash (-) response means no test result.

One compound from patent publication US10294202B2, “Pyrrolidinones as herbicides” (FMC Corporation, priority 2013, dated 2019) can be followed below.

Consider `O=C1NCC(c2cccc(C(F)(F)F)c2)C1C(=O)Nc1ccccc1F` (racemic) [Compound 3], for which the “Plant response rating, Rice, W.S. Jap” value (250 g ai/ha) stood at 0 and the “Plant response rating, Rice, W.S. Jap” value (500 g ai/ha) amounted to 10.
